Broadly, the MIC is the lowest concentration that inhibits growth of the organism. A high value points to a less susceptible organism.

Holding throughout (assay type): functional
Assay [1] deals with Candida albicans. Briefly: Antifungal activity against Candida albicans isolate 03-2718 infected BALB/c mouse vaginitis model assessed as reduction in fungal load in vagina at 20 mg/kg, administered through oral gavage twice daily for 5 days measured on day 1 post inoculation.
In assay [2] the test system is Candida albicans. The experiment in a line: Antifungal activity against Candida albicans isolate 03-2718 infected BALB/c mouse vaginitis model assessed as reduction in fungal load in vagina at 20 mg/kg, administered through oral gavage twice daily for 5 days measured on day 6 post inoculation.
The test system of assay [3] is Candida albicans. Briefly: Antifungal activity against Candida albicans isolate 03-2718 infected BALB/c mouse vaginitis model assessed as reduction in fungal load in vagina at 20 mg/kg, administered through oral gavage once daily for 5 days measured on day 1 post inoculation.
Assay [4] deals with Candida albicans. The experiment in a line: Antifungal activity against Candida albicans isolate 03-2718 infected BALB/c mouse vaginitis model assessed as reduction in fungal load in vagina at 20 mg/kg, administered through oral gavage once daily for 5 days measured on day 6 post inoculation.
The subject of assay [5] is Candida albicans. The experiment in a line: Antifungal activity against Candida albicans isolate 03-2718 infected BALB/c mouse vaginitis model assessed as reduction in fungal load in vagina at 40 mg/kg, administered through oral gavage once daily for 5 days measured on day 1 post inoculation.
The test system of assay [6] is Candida albicans. The experiment in a line: Antifungal activity against Candida albicans isolate 03-2718 infected BALB/c mouse vaginitis model assessed as reduction in fungal load in vagina at 40 mg/kg, administered through oral gavage twice daily for 5 days measured on day 1 post inoculation.
Assay [7] relates to Candida albicans. Briefly: Antifungal activity against Candida albicans isolate 03-2718 after 48 hrs. The conditions noted are these: isolate 03-2718, 48 h.
Assay [8] relates to Candida albicans. The experiment in a line: Antifungal activity against Candida albicans isolate 03-2718 infected BALB/c mouse vaginitis model assessed as reduction in fungal load in vagina at 5 mg/kg, administered through oral gavage once daily for 5 days measured on day 6 post inoculation.
Assay [9] has as its system Candida albicans. Briefly: Antifungal activity against Candida albicans isolate 03-2718 infected BALB/c mouse vaginitis model assessed as reduction in fungal load in vagina at 10 mg/kg, administered through oral gavage once daily for 5 days measured on day 1 post inoculation.
Assay [10] relates to Candida albicans. Briefly: Antifungal activity against Candida albicans isolate 03-2718 infected BALB/c mouse vaginitis model assessed as reduction in fungal load in vagina at 5 mg/kg, administered through oral gavage twice daily for 5 days measured on day 1 post inoculation.
Assay [11] deals with Candida albicans. Briefly: Antifungal activity against Candida albicans isolate 03-2718 infected BALB/c mouse vaginitis model assessed as reduction in fungal load in vagina at 5 mg/kg, administered through oral gavage once daily for 5 days measured on day 1 post inoculation.
In assay [12] the test system is Candida albicans. Briefly: Antifungal activity against Candida albicans isolate 03-2718 infected BALB/c mouse vaginitis model assessed as reduction in fungal load in vagina at 5 mg/kg, administered through oral gavage twice daily for 5 days measured on day 6 post inoculation.
The test system of assay [13] is Candida albicans. The experiment in a line: Antifungal activity against Candida albicans isolate 03-2718 infected BALB/c mouse vaginitis model assessed as reduction in fungal load in vagina at 40 mg/kg, administered through oral gavage twice daily for 5 days measured on day 6 post inoculation.
The test system of assay [14] is Candida albicans. The experiment in a line: Antifungal activity against Candida albicans isolate 03-2718 infected BALB/c mouse vaginitis model assessed as reduction in fungal load in vagina at 10 mg/kg, administered through oral gavage once daily for 5 days measured on day 6 post inoculation.
Assay [15] has as its system Candida albicans. The experiment in a line: Antifungal activity against Candida albicans isolate 03-2718 infected BALB/c mouse vaginitis model assessed as reduction in fungal load in vagina at 10 mg/kg, administered through oral gavage twice daily for 5 days measured on day 6 post inoculation.
Assay [16] concerns Candida albicans. Briefly: Antifungal activity against Candida albicans isolate 03-2718 infected BALB/c mouse vaginitis model assessed as reduction in fungal load in vagina at 40 mg/kg, administered through oral gavage once daily for 5 days measured on day 6 post inoculation.
The test system of assay [17] is Candida albicans. The experiment in a line: Antifungal activity against Candida albicans isolate 03-2718 infected BALB/c mouse vaginitis model assessed as reduction in fungal load in vagina at 10 mg/kg, administered through oral gavage twice daily for 5 days measured on day 1 post inoculation.

Structures are written as SMILES. ≈ marks a conversion by molar mass, not a printed value.

On to `OC(Cn1cncn1)(Cn1cncn1)c1ccc(F)cc1F` [FLUCONAZOLE], for which the log10cfu in the assay with Candida albicans [1] was determined as 5.9; in the assay on Candida albicans [2], 3.74; with Candida albicans [3], 5.51; in the assay on Candida albicans [4], 4.51.

Regarding `C[C@@H](n1cnc2cc(Cl)ccc2c1=O)[C@](O)(Cn1cncn1)c1ccc(F)cc1F` [ALBACONAZOLE], the log10cfu turned out to be 5.48 with Candida albicans [1]; 5.62 in the assay on Candida albicans [5]; 5.79 in the assay with Candida albicans [6]; 3.34 with Candida albicans [2]; 4.99 in the assay on Candida albicans [8]; 5.07 in the assay with Candida albicans [9]. The log10cfu in the assay with Candida albicans [10] is given as 5.46; in the assay on Candida albicans [11] it was 5.06; with Candida albicans [12], 4.82; in the assay on Candida albicans [3], 5.13; in the assay with Candida albicans [13] it was 2.24; with Candida albicans [14], 4.33. Moreover, the log10cfu with Candida albicans [15] was 3.83; in the assay with Candida albicans [16] it was 3.13; in the assay on Candida albicans [17], 5.43; in the assay on Candida albicans [4], 3.81. This molecule also returned an MIC in the assay with Candida albicans [7] of 0.5 µg/mL (≈ 1.16 µM).

Values taken from ChEMBL document CHEMBL1649223, “Efficacy of albaconazole against Candida albicans in a vaginitis model” (2009).
